Laboratory results: patent publication US20090124599A1, “Fungicidal Mixtures” (Basf Aktiengesellschaft, priority 2004, published 2009)

Tests used:
Botrytis cinerea = assay: Activity against the gray mold pathogen Botrytis cinerea in the microtiter test; type: cell-based; conditions: single active, day 7 after inoculation, absorption 405 nm
Phytophthora infestans = type: in vivo, Phytophthora infestans on tomato plants; conditions: 16 ppm; single active; sprayed 5 days before infection, assessed after 6 days; control 90% infection

## CO/C=C(/C(=O)OC)c1ccccc1CO/N=C(C)/C=C/c1ccc(Cl)cc1 [enestroburin (I), methyl 2-{2-[3-(4-chlorophenyl)-1-methylallylideneaminooxymethyl]phenyl}-3-methoxyacrylate]
Botrytis cinerea; 0.063 ppm
  Observed efficacy (%): 0%
Botrytis cinerea; 0.125 ppm
  Observed efficacy (%): 0%
Botrytis cinerea; 0.25 ppm
  Observed efficacy (%): 0%

## O=[N+]([O-])c1cc(C(F)(F)F)c(Cl)c([N+](=O)[O-])c1Nc1ncc(C(F)(F)F)cc1Cl [fluazinam (II-1), 3-chloro-N-[3-chloro-2,6-dinitro-4-(trifluoromethyl)phenyl]-5-(trifluoromethyl)-2-pyridineamine]
Botrytis cinerea; 0.063 ppm
  Observed efficacy (%): 35%
Phytophthora infestans
  Observed efficacy (%): 22%

## Cc1cc(C)nc(Nc2ccccc2)n1 [pyrimethanil (II-9)]
Botrytis cinerea; 0.125 ppm
  Observed efficacy (%): 70%
